# Assays:
# CYP 2B6 = CYP 2B6 (Homo sapiens, UniProt P20813); experiment: CYP inhibition in vitro; type: in vitro ADME
# [1] = Pharmacokinetic study in mice, oral; type: in vivo, C57BL/6J mice; settings: mouse plasma, mean ± SD, n = 3
# Experimental: Male C57BL/6J mice (Beijing Huafukang Biotechnology Co., Ltd, Beijing, China) were selected at 6–8 weeks for the experiment. […] About 50–60 μL of blood and tissue were isolated in anticoagulation tubes at 15, 30 min, 1, 2, 4, 6, and 8 h after administration, respectively, and then centrifuged at 5000 r/min for 7 min at 4°C. […] The standard solution was prepared with 7 concentrations and QC with 3. The standard and QC working solutions were added to the 96‐well plate, and the protein was precipitated by adding acetonitrile solution containing the internal standard together with the sample to be tested. After shaking for 10 min and centrifugation at 12 000 × g for 10 min, the supernatants from the 96‐well plate were analyzed by LC–MS (mobile phase: 0.1% formic acid‐water 0.1% formic acid‐acetonitrile). Raw data were imported into Phoenix WinNonlin to calculate AUC, C max, T 1/2, etc.
# CYP 2B6, sequence (P20813 whole entry): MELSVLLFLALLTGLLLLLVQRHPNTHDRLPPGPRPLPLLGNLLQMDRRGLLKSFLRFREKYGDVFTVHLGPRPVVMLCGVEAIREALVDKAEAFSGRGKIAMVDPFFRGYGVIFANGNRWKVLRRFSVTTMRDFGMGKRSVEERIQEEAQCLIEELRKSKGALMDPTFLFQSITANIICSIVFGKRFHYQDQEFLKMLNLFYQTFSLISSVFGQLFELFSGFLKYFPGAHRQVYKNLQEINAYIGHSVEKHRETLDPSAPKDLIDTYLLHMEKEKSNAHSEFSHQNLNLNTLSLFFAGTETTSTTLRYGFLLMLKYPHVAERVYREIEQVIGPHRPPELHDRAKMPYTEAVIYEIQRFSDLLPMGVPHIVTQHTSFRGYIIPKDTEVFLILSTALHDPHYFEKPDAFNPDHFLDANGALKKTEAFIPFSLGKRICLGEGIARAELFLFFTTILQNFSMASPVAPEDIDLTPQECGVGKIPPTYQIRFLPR
compound,measurement,setting,value
Cc1cc(F)c(C(=O)Nc2cccc(-c3nncn3[C@H](C)C(F)(F)F)n2)cc1NC(=O)C1CC1 [CS17919],IC50,CYP 2B6,> 10 µM
same,Cmax,[1]; 20 mg/kg p.o.,4039 ± 646.90 ng/mL
same,MRT0–∞,[1]; 20 mg/kg p.o.,3.96 ± 0.91 h
same,T 1/2,[1]; 20 mg/kg p.o.,2.20 ± 0.74 h
same,T max,[1]; 20 mg/kg p.o.,1.50 ± 0.87 h
same,Cmax,[1]; 50 mg/kg p.o.,5741 ± 1835 ng/mL
same,MRT0–∞,[1]; 50 mg/kg p.o.,6.43 ± 1.44 h
same,T 1/2,[1]; 50 mg/kg p.o.,3.50 ± 1.86 h
same,T max,[1]; 50 mg/kg p.o.,2.00 ± 0 h

# — paper PMC11798738, “Targeting ASK1 by CS17919 alleviates kidney‐ and liver‐related diseases in murine models” (Animal Models and Experimental Medicine, 2024)
